Activity calls are given as the source filed them.
Experiments:
[1] = test system: Streptococcus sp. 'group A'; experiment: Streptococcus pyogenes SK(-)GAS viability under kanamycin – luminescence, BacTiterGlo, confirmation, counter-screen for streptokinase expression inhibitor project, dose response (AID 1900); type: functional, organism-based
[2] = biological target: T1, Endoribonuclease toxin MazF (Escherichia coli K-12, UniProt P0AE70); experiment: substrate-only fluorescence increase artefacts – biochemical, single-stranded RNase substrate, counter-screen for MazEF activator project, dose response (AID 588502); type: functional
T1 sequence (P0AE70 whole entry): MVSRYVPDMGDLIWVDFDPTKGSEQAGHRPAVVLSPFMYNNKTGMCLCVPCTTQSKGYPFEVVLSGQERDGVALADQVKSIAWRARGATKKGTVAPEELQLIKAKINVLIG

[3] = biological target: Neurotensin receptor type 1 (Homo sapiens, UniProt P30989); type: functional;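 also: Image-based confirmatory dose-response assay measuring agonist activity at NTR1; NTR1-expressing U2OS osteosarcoma cells imaged for beta-arrestin GFP spot formation; agonist potency where compounds increase beta-arrestin recruitment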
Chain of Neurotensin receptor type 1 (P30989 whole entry): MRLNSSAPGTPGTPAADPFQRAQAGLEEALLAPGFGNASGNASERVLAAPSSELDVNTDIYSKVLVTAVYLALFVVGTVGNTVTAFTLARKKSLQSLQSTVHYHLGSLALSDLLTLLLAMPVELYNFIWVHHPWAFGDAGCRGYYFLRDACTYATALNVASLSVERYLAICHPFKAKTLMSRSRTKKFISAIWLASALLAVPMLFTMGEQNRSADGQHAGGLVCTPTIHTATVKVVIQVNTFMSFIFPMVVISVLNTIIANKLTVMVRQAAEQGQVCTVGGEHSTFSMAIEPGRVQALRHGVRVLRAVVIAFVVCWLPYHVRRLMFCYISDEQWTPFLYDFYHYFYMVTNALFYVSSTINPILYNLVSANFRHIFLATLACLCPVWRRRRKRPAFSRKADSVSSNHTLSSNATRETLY

[4] = biological target: T1, Endoribonuclease toxin MazF; experiment: activation of MazEF endoribonuclease cleavage – biochemical, fluorescence, single-stranded RNA substrate, uHTS hits, dose response (AID 588481); type: functional
Streptokinase A = biological target: T2, Streptokinase A (Streptococcus pyogenes serotype M1, UniProt P10520); experiment: viability-normalized secreted streptokinase activity reduction – plasminogen activation absorbance, OD405, dose response (AID 1914); type: functional, Streptococcus pyogenes M1 GAS;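 also: secreted streptokinase activity via plasminogen activation per viability signal from cell pellet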
T2 sequence (P10520 whole entry): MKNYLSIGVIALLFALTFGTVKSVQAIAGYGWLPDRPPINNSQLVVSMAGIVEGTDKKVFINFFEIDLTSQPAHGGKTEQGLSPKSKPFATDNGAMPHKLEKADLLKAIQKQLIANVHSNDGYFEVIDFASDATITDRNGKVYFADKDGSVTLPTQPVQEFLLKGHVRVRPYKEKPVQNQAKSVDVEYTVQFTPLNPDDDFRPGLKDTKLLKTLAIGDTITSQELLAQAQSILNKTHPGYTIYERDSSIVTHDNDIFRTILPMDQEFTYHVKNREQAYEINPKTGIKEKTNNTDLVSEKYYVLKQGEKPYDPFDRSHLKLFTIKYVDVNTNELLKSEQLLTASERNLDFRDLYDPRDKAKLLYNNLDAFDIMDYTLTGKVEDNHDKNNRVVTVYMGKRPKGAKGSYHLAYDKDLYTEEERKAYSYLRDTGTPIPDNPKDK

[5] = Luminescence Cell-Based Dose Retest to Confirm Inhibitors of Cancer Stem Cells. [Related pubchem assays (depositor defined):AID2717, AID2721]; type: functional; settings: Homo sapiens
Fatty acid synthase [6] = biological target: T3, Fatty acid synthase (Homo sapiens, UniProt P49327); experiment: inhibition of human FAS-TE enzyme activity – biochemical, kinetic fluorescence intensity, dose response (AID 624326); type: functional;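 also: rate of fluorescence rise from hydrolysis of a fluorogenic O-methyl fluorescein ester substrate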
T3 sequence (P49327 whole entry): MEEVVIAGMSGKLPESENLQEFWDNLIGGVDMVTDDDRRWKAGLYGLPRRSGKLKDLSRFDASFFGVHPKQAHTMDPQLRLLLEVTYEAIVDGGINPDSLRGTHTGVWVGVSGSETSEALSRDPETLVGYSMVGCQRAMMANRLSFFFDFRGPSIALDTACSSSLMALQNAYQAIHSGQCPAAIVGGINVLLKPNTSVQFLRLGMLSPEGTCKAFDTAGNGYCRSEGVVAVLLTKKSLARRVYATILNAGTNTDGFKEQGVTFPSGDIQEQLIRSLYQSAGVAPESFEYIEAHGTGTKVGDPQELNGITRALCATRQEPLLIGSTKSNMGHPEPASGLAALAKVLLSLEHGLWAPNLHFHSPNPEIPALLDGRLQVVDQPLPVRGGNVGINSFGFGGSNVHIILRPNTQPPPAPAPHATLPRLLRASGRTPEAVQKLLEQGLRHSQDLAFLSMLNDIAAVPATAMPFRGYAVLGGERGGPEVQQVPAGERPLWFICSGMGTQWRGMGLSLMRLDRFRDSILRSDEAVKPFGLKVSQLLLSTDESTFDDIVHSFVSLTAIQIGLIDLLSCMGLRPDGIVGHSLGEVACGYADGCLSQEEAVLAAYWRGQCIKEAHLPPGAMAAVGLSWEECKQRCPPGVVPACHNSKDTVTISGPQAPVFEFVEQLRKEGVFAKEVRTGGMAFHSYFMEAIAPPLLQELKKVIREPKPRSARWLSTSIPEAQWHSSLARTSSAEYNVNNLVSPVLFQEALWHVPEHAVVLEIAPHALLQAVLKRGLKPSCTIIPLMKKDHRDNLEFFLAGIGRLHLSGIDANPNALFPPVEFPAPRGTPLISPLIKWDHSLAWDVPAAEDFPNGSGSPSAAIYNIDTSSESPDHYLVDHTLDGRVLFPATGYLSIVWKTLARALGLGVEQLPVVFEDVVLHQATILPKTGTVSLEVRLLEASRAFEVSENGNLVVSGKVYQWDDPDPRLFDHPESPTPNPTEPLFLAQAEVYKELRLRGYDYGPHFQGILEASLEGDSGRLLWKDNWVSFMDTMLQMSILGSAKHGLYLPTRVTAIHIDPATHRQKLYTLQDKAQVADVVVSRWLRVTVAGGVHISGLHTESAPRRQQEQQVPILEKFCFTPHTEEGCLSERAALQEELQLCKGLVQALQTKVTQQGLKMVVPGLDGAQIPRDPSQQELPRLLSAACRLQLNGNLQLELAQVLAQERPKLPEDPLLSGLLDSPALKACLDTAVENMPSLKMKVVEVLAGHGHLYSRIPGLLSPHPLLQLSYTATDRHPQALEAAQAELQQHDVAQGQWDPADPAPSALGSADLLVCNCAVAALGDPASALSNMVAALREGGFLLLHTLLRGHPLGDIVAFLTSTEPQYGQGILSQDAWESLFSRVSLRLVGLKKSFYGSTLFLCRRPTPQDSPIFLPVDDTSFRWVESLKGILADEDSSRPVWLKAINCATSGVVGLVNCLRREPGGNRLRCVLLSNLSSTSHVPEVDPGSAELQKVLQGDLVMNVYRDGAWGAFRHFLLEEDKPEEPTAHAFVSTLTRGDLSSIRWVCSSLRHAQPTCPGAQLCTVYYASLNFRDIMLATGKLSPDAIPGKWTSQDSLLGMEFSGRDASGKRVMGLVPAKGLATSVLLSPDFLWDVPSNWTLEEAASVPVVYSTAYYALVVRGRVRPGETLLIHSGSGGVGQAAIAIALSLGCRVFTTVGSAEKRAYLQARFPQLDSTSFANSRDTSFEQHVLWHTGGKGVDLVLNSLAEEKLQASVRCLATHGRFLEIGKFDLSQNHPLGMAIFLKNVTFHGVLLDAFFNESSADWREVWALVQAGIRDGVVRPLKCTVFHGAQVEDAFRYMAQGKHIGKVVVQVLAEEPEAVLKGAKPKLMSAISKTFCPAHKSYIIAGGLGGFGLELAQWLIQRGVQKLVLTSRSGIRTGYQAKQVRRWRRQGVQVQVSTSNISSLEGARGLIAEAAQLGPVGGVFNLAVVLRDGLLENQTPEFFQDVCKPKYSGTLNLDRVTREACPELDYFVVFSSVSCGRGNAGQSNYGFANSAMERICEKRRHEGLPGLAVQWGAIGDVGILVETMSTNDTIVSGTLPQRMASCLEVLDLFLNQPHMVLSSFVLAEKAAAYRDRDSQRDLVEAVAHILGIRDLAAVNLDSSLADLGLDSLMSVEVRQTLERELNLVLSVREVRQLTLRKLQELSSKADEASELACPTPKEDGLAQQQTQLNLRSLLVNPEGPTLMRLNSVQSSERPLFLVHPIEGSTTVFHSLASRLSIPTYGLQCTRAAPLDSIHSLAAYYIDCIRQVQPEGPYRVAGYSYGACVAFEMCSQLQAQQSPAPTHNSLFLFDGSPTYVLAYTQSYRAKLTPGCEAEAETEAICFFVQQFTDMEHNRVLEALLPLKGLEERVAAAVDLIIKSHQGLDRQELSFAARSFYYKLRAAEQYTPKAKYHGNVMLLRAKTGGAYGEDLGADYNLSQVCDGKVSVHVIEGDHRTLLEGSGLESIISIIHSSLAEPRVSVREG

Fatty acid synthase [7] = biological target: T3, Fatty acid synthase; experiment: inhibition of human FAS-TE enzyme activity – biochemical, endpoint fluorescence intensity, uHTS hits, dose response (AID 624327); type: functional;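 also: fluorescence from hydrolysis of an O-methyl fluorescein acyl ester substrate by the enzyme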
Streptococcus = experiment: GAS UMAA2166 growth inhibition – luminescence, BacTiterGlo, counter-screen for streptokinase expression inhibitor project, dose response (AID 1915); type: functional, organism-based;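 also: potency for reduction of bacterial viability or growth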
[8] = viability of uninfected HEp-2 cells – cell-based, HTS, cytotoxicity control for RSV inhibitor project, dose response (AID 2410); type: functional; settings: human respiratory syncytial virus
INS1 = experiment: INS-1E mitochondrial potential loss inhibitors – cell-based, JC-1 fluorescence, dry powder, set 2, dose response (AID 488867); type: functional; settings: Rattus norvegicus
[9] = suppression of NO production in INS-1E cells – cell-based, Griess absorbance, dry powder, set 3, dose response (AID 488870); type: functional; settings: Rattus norvegicus
[10] = biological target: T4, Replicative DNA helicase DnaB (Mycobacterium tuberculosis, UniProt P9WMR3); experiment: DnaB intein splicing inhibitors, dose response, biochemical, cell-free fluorescence (AID 449749); type: functional
T4 sequence (P9WMR3 whole entry): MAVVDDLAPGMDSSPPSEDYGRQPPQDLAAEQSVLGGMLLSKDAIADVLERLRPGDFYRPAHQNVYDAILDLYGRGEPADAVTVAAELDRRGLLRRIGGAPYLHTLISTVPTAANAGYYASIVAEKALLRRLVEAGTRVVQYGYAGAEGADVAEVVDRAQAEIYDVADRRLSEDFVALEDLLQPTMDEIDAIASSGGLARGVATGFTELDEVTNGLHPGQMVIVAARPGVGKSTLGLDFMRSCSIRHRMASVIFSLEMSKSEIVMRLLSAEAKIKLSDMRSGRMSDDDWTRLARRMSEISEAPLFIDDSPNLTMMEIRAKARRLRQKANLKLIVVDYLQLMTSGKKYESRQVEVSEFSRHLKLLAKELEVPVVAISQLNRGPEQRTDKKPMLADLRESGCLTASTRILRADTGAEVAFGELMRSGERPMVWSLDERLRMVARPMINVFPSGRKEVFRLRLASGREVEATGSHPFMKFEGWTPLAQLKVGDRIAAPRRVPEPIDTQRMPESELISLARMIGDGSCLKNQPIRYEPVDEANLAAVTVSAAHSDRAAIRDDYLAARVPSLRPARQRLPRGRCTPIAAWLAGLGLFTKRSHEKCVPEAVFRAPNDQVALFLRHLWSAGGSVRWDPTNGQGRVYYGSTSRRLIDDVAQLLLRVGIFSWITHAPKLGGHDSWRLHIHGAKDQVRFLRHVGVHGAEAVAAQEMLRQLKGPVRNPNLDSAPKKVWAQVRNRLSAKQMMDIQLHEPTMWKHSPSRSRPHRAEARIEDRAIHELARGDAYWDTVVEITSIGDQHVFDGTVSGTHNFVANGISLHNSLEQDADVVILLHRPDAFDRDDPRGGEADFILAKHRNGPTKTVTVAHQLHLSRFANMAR

[11] = alpha-synuclein stem-loop luciferase translation blockers – H4 neuroglioma cells, luminescence, confirmation (AID 1988); type: functional, cell-based
[12] = reduction of Shn3 3'UTR-driven luciferase in osteoblasts – cell-based, Clone20 osteoblasts, firefly luciferase, cherry-picked, dose response (AID 624132); type: functional;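 also: firefly luciferase luminescence from reporter carrying the Shn3 3'UTR in osteoblasts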
[13] = OVCAR-3 cell viability loss – plate reader, dry powder samples, PAX8 inhibitor project, dose response (AID 743044); type: functional, cell-based
[14] = Luminescence Cell-Based Dose Response HTS to Identify Inhibitors of 5'UTR Stem-Loop Driven Prion Protein mRNA Translation in H4 Neuroglioblastoma Cells. [Related pubchem assays: 1827 (Project Summary), 1813 (Primary HTS)]; type: functional
[15] = loss of viability in HepG2 cells – cell-based, CellTiter-Glo, cherry-picked, cytotoxicity control for Shn3 inhibitor project, dose response (AID 624134); type: functional
[16] = luciferase reporter signal suppression in cells – H4 neuroglioma cells, luminescence, dose response (AID 1990); type: functional, cell-based
Protein RecA = biological target: T5, Protein RecA (Mycobacterium tuberculosis, UniProt P9WHJ3); experiment: Fluorescence Cell-Free Homogeneous Dose Retest to Identify Inhibitors of RecA-Intein Splicing Activity. [Related pubchem assays (depositor defined):AID2097, AID2223, AID489010, AID492950]; type: functional
T5 sequence (P9WHJ3 whole entry): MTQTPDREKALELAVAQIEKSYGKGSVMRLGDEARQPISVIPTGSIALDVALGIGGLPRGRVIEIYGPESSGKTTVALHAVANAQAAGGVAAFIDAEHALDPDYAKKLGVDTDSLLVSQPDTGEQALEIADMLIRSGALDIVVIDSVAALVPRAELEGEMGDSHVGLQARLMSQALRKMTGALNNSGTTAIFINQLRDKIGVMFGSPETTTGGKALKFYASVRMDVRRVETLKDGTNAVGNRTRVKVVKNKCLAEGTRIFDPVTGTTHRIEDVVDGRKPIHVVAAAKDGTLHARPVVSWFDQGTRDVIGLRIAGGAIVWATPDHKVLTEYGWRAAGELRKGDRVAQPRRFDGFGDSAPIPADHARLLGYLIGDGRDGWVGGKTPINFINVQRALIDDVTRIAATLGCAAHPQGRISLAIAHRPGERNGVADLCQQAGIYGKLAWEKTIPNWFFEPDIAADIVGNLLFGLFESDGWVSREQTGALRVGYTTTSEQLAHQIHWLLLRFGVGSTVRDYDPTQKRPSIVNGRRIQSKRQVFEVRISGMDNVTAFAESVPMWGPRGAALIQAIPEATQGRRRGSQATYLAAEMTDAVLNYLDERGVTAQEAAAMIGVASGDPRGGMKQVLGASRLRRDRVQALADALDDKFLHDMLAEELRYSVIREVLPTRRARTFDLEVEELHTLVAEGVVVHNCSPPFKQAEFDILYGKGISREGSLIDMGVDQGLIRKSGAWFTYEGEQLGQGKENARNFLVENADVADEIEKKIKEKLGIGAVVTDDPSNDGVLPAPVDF

[17] = COV362 cell viability loss – plate reader, dry powder, SA12, cytotoxicity control for PAX8 inhibitor project, dose response (AID 743144); type: functional, cell-based
CHO = CHO cell viability loss, potency – luminescence, cytotoxicity control for TLR9-MyD88 binding inhibitor project, dose response (AID 588339); type: functional, cell-based, hamster; settings: Cricetulus griseus;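 also: CHO cells stably coexpressing TLR9 and MyD88 fusions from primary screen; compound exposure lasted 48 hours before viability readout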
HEK293 [18] = experiment: NOD2 signaling inhibitors in MDP-stimulated cells, cell-based, uHTS, luminescence (AID 2001); type: functional; settings: Homo sapiens
[19] = IGROV1 cell killing – plate reader, dry powder samples, PAX8 inhibitor project, dose response (AID 743043); type: functional, cell-based; settings: IGROV-1
[20] = A2780 cell killing – plate reader, dry powder samples, cytotoxicity control, dose response (AID 743046); type: functional, cell-based
[21] = biological target: ATP-binding cassette sub-family B member 6 (Homo sapiens, UniProt Q9NP58); experiment: concentration-dependent ABCB6 porphyrin transport blockade – K562-ABCB6 cells, flow cytometry, cherry pick 1, dose response (AID 623955); type: functional; settings: read-out: EC50_MICROM
Chain of ATP-binding cassette sub-family B member 6 (Q9NP58 whole entry): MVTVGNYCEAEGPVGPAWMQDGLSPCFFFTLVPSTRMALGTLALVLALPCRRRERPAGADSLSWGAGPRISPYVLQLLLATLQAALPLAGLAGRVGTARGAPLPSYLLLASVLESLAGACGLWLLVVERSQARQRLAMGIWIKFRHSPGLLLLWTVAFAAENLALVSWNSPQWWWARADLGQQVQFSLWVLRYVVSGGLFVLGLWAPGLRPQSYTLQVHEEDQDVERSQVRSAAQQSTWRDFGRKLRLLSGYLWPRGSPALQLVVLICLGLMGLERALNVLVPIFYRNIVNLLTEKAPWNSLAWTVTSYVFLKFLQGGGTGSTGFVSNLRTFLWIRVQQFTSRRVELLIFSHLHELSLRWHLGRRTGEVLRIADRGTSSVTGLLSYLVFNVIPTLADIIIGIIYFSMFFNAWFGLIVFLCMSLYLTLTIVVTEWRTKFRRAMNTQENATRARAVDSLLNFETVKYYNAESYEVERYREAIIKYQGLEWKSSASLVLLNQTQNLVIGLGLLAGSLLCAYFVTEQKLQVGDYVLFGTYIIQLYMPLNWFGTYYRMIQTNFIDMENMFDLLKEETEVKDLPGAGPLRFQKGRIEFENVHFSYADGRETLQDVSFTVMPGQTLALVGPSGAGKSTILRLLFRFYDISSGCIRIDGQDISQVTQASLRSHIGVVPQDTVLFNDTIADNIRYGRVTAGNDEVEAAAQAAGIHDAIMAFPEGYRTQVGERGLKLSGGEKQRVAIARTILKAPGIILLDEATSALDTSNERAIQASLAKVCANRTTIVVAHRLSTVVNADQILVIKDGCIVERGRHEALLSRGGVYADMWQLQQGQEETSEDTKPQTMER

HEK293 [22] = experiment: inhibition of NOD1-driven NF-kB reporter – cell-based, luminescence, uHTS, primary screen (AID 1578); type: functional; settings: Homo sapiens
Escherichia coli = experiment: microbe, parasite or virus in culture
[23] = OVCAR4 cell viability loss – plate reader, dry powder, SA11, cytotoxicity control for PAX8 inhibitor project, dose response (AID 743150); type: functional, cell-based; settings: OVCAR-4
[24] = inhibitors acting on PAX2 in cells – cell-based, plate reader, dry powder samples, selectivity assay for PAX8 inhibitor project, dose response (AID 743048); type: functional;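 also: HEK293 cells carrying a WT1 promoter luciferase reporter driven by expressed Pax2; potency is for inhibition of Pax2 driven reporter signal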
[25] = toxicity toward immortalized ovarian surface epithelium – cell-based, plate reader, dry powder samples, cytotoxicity control for PAX8 inhibitor project, dose response (AID 743045); type: functional
Beta Lactamase = Beta Lactamase (Pseudomonas aeruginosa, UniProt Q932Y6); experiment: BLA reporter interference, concentration series – BLA reporter cells, FRET fluorescence, artefact control for TLR9-MyD88 binding inhibitor project, dose response (AID 588341); type: cell-based;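 also: cell based assay in CHO-K1 cells stably expressing beta-lactamase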
Chain of Beta Lactamase (Q932Y6 whole entry): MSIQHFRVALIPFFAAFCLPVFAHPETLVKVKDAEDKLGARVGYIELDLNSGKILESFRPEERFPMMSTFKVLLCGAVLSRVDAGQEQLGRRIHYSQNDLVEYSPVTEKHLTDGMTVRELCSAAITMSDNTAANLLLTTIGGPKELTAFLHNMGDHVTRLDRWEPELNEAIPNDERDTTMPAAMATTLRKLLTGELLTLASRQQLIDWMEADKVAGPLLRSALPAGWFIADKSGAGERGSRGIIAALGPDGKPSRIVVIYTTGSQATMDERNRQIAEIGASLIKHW

[26] = non-specific 3'UTR reporter inhibition in Clone20-Shn3RL – cell-based, Renilla luciferase, cherry-picked, counter-screen for Shn3 inhibitor project, dose response (AID 624133); type: functional
[27] = PAX8-dependent cell viability loss – plate reader, dry powder, dose response (AID 743049); type: functional, cell-based
[28] = PAX5 cellular inhibition readout – cell-based, plate reader, dry powder samples, selectivity assay for PAX8 inhibitor project, dose response (AID 743047); type: functional;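 also: HEK293 cells carrying a Pax5 driven CD19 promoter luciferase reporter; potency of inhibitors that lower reporter luminescence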
[29] = biological target: Heat shock protein HSP 90-alpha (Homo sapiens, UniProt P07900); type: functional, organism-based
HEK293 [30] = experiment: cells; type: functional, cell-based; settings: Homo sapiens
[31] = COV434 cell viability loss – plate reader, dry powder, SA7, cytotoxicity control for PAX8 inhibitor project, dose response (AID 743145); type: functional, cell-based
Paired box protein Pax-8 = Paired box protein Pax-8 (Homo sapiens, UniProt Q06710); experiment: PAX8 transcriptional activity inhibition in RMG-I – RMG-I cells, luciferase, cherry-pick, dose response (AID 687027); type: functional, cell-based;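 also: luciferase reporter driven by Pax8 target thyroperoxidase promoter measured by SteadyGlo luminescence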
Chain of Paired box protein Pax-8 (Q06710 whole entry): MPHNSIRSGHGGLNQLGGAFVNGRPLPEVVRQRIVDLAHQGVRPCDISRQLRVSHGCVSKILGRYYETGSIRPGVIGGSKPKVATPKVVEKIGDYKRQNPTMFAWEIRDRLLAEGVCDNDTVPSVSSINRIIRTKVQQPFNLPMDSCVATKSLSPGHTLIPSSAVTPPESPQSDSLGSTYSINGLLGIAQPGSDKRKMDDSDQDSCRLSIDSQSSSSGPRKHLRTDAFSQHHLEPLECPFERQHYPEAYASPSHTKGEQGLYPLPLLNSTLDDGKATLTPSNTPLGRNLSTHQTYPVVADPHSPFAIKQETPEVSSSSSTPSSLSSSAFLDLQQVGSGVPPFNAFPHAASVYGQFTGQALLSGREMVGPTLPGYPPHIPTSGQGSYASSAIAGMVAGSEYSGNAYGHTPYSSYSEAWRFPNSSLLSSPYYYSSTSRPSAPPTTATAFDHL

[32] = OV-90 cell viability loss – plate reader, dry powder, SA8, PAX8 inhibitor project, dose response (AID 743149); type: functional, cell-based
HEK293 [33] = experiment: cells; type: functional, cell-based; settings: Homo sapiens; remark: listed apart in the source
[34] = biological target: Nucleotide-binding oligomerization domain-containing protein 2 (Homo sapiens, UniProt Q9HC29); experiment: inhibition of NOD2-driven NF-kB reporter – cell-based, luminescence, uHTS, HEK293 (AID 1566); type: functional

SMILES: O=[N+]([O-])c1ccc(-c2nc(Nc3cccc(O)c3)c3ccccc3n2)cc1
- EC50 [1]: 11.4 µM (active)
- EC50 [2]: > 99 µM (inactive)
- EC50 [3]: 15.3 µM (active)
- EC50 [4]: > 99 µM (inactive)
- EC50 (Streptokinase A): > 150 µM (not active)
- AC50 [5]: 3.24 µM (active)
- IC50 (Fatty acid synthase [6]): 13.2 µM (active)
- IC50 (Fatty acid synthase [7]): 12.9 µM (active)
- EC50 (Streptococcus): 8.36 µM (active)
- CC50 [8]: 22 µM (active)

SMILES: C[C@@H]1CN([C@@H](C)CO)C(=O)c2cccc(NC(=O)Nc3cccc4ccccc34)c2O[C@H]1CN(C)S(=O)(=O)c1ccc2c(c1)OCCCO2
- AC50 (INS1): 253 µM (active)
- AC50 [9]: 32.2 µM (active)

SMILES: Cc1cccc(CS(=O)(=O)c2ncc(Cl)c(C(=O)Nc3ccc(F)cc3)n2)c1
- AC50 [10]: 3.25 µM (active)
- EC50 [11]: 12.4 µM (active)
- AC50 [12]: 0.55 µM (active)
- AC50 [13]: 7.88 µM (active)
- EC50 [14]: 22 µM (active)
- AC50 [15]: 29.2 µM (active)
- EC50 [16]: 12.2 µM (active)
- EC50 (Protein RecA): 2.19 µM (active)
- AC50 [17]: 7.95 µM (active)
- IC50 (CHO): 2.72 µM (active)
- IC50 (HEK293 [18]): 10.8 µM (inactive)
- AC50 [19]: 9.96 µM (active)
- AC50 [20]: 23.8 µM (active)
- IC50 (Fatty acid synthase [6]): 19.4 µM (active)
- EC50 [21]: 80.4 µM (active)
- IC50 (Fatty acid synthase [7]): 9.64 µM (active)
- EC50 (HEK293 [22]): 8.42 µM (active)
- AC50 (Escherichia coli): 25.5 µM (active)
- AC50 [23]: 10.5 µM (active)
- AC50 [24]: 14.8 µM (active)
- AC50 [25]: 10.5 µM (active)
- IC50 (Beta Lactamase): 9.48 µM (active)
- AC50 [26]: 6.54 µM (active)
- AC50 [27]: 12.7 µM (active)
- AC50 [28]: 31.4 µM (active)
- AC50 [29]: 1.73 µM (active)
- IC50 (HEK293 [30]): > 20 µM (inactive)
- AC50 [31]: 4.11 µM (active)
- AC50 (Paired box protein Pax-8): 9.28 µM (active)
- AC50 [32]: 8.4 µM (active)
- IC50 (HEK293 [33]): > 20 µM (inactive)
- EC50 [34]: > 20 µM (inactive)

Source: ChEMBL document CHEMBL1201862, “PubChem BioAssay data set” (2004)
